Data taken from patent US4283398A, “Cephalosporins” (Mitsui Toatsu Chemicals, Inc., priority 1978, dated 1981).

How the values were obtained:
Escherichia coli (K-12) = experiment: minimum growth inhibitory concentration (MIC) method; type: cell-based; details: E. coli K-12, HIA medium, 37° C., 18 hours, sodium salts
Description: (§1) The antibacterial activities of the cephalosporins of this invention were measured using the sodium salts of the compounds obtained in Synthesis Examples 1 and 2. The procedure and the results are shown in Referential Example 1.
(§2) Carbenicillin sodium salt (CB-PC) and cephazoline sodium salt (CEZ) were used as controls.
(§3) The antibacterial activities of the test compounds against various Gram-positive and Gram-negative bacteria were determined in a customary manner by the minimum growth inhibitory concentration method (MIC method).
(§4) A commercially available heart infusion agar medium (to be abbreviated HIA medium) was used as an assay medium, and a commercially available trypto-soy bouillon medium (to be abbreviated TSB) was used as a medium for the growth of test bacterial strains.
(§5) The test compound was diluted with the melted HIA medium to 100 μg/ml as a maximum concentration, and then serially diluted double. The dilutions were poured into sterilized Petri dishes respectively and allowed to cool and solidify to prepare plates containing the test compound.
(§6) The test bacterial strain was cultivated at 37° C. for 18 to 24 hours in the TSB medium. The culture broth was diluted to 50 to 500 times with a freshly prepared TSB culture medium, and one platinum loopful of the dilution was inoculated in each of the plates containing the test compound. The plate was incubated at 37° C. for 18 hours, and the state of growth of the strain on the plate was observed, and the minimum growth inhibitory concentration (MIC) of the test compound was determined.

[1] = system: Klebsiella pneumoniae (Horino); experiment: as above; type: cell-based; details: K. pneumoniae Horino, HIA medium, 37° C., 18 hours, sodium salts
Description: as §1, §2, §3, §4, §5, §6

Proteus rettgeri (T-2) = experiment: as above; type: cell-based; details: Providencia rettgeri, HIA medium, 37° C., 18 hours, sodium salts
Description: as §1, §2, §3, §4, §5, §6

[2] = system: Pseudomonas aeruginosa (395); experiment: as above; type: cell-based; details: P. aeruginosa 395, HIA medium, 37° C., 18 hours, sodium salts
Description: as §1, §2, §3, §4, §5, §6

[3] = system: Pseudomonas aeruginosa (NCTC 7244); experiment: as above; type: cell-based; details: NCTC7244, P. aeruginosa NCTC 7244, HIA medium, 37° C., 18 hours, sodium salts
Description: as §1, §2, §3, §4, §5, §6

[4] = system: Serratia marcescens (S-33); experiment: as above; type: cell-based; details: HIA medium, 37° C., 18 hours, sodium salts
Description: as §1, §2, §3, §4, §5, §6

Shigella flexneri (K-A) = experiment: as above; type: cell-based; details: HIA medium, 37° C., 18 hours, sodium salts
Description: as §1, §2, §3, §4, §5, §6

[5] = system: Staphylococcus aureus (Y-8); experiment: as above; type: cell-based; details: S. aureus Y-8, HIA medium, 37° C., 18 hours, sodium salts
Description: as §1, §2, §3, §4, §5, §6

[6] = system: Streptococcus faecalis (Hoshi); experiment: as above; type: cell-based; details: Enterococcus faecalis, HIA medium, 37° C., 18 hours, sodium salts
Description: as §1, §2, §3, §4, §5, §6

[7] = blood level in rats after intramuscular administration; type: in vivo; details: rat, im, 20 mg/kg i.m., serum, read-out: Blood level after administration (average value ± standard deviation); for concentration at 0.25 h: 15 minutes; for concentration at 0.5 h: 30 minutes; for concentration at 1 h: 60 minutes; for concentration at 2 h: 120 minutes
Description: The compounds of this invention prepared in synthesis Examples 1 and 2 were each administered intramuscularly to rats, and the concentrations of the compounds in the blood were determined.
Each of the test compounds was intramuscularly injected into the femoral part of rats in a customary manner in a dose of 20 mg/kg for each rat. The blood was drawn by incising the cervical artery and vein at the end of 15 minutes, 30 minutes, 60 minutes, 120 minutes, and 240 minutes after the injection. The separated sera were used for the measurement of the blood level of the test compound. The concentrations of the test compounds in the sera were determined by a thin-layer cup method using Micrococcus luteus ATCC 9341 as an assay microorganism.

[8] = system: Klebsiella pneumonia (F-5089); experiment: minimum growth inhibitory concentration (MIC) method; type: cell-based; details: Klebsiella pneumoniae, HIA medium, 37° C., 18 hours, sodium salts
Description: as §1, §2, §3, §4, §5, §6

Structure (SMILES)	MIC (Escherichia coli (K-12))	MIC [1]	MIC (Proteus rettgeri (T-2))	MIC [2]	MIC [3]	MIC [4]	MIC (Shigella flexneri (K-A))	MIC [5]	MIC [6]	concentration at 0.25 h [7]	concentration at 0.5 h [7]	concentration at 1 h [7]	concentration at 2 h [7]	MIC [8]
Cn1nnnc1SCC1=C(C(=O)O)N2C(=O)C(NC(=O)[C@H](NC(=O)c3cnc4c(c3O)C(=O)CCC4)c3ccccc3)C2SC1 (single isomer, unassigned) [Synthesis Example 1, 7-[D-(-)-α-(4-hydroxy-5-oxo-5,6,7,8-tetrahydroquinoline-3-carboxamide)phenylacetamido)-3-[[(1-methyl-1H-tetrazol-5-yl)thio]methyl]-Δ^3-cephem-4-carboxylic acid]	0.78 µg/mL	1.56 µg/mL	1.56 µg/mL	3.13 µg/mL	12.5 µg/mL	3.13 µg/mL	0.2 µg/mL	3.13 µg/mL	25 µg/mL	12100 ± 3600 ng/mL	10500 ± 2200 ng/mL	9100 ± 3200 ng/mL	4800 ± 2100 ng/mL	–
Cn1nnnc1SCC1=C(C(=O)O)N2C(=O)C(NC(=O)[C@H](NC(=O)c3cnc4c(c3O)C(=O)CCC4)c3ccc(O)cc3)C2SC1 (single isomer, unassigned) [Synthesis Example 2, 7-[D-(-)-α-(4-hydroxy-5-oxo-5,6,7,8-tetrahydroquinoline-3-carboxamide)-α-(4-hydroxyphenyl)acetamido]-3-[[(1-methyl-1H-tetrazol-5-yl)thio]methyl]-Δ^3-cephem-4-carboxylic acid]	0.39 µg/mL	0.78 µg/mL	1.56 µg/mL	1.56 µg/mL	6.25 µg/mL	3.13 µg/mL	0.1 µg/mL	3.13 µg/mL	25 µg/mL	20000 ± 1400 ng/mL	14400 ± 2500 ng/mL	8000 ± 4000 ng/mL	3200 ± 1200 ng/mL	–
CC1(C)S[C@@H]2[C@H](NC(=O)C(C(=O)O)c3ccccc3)C(=O)N2[C@H]1C(=O)O (stereo partly drawn) [CB-PC, disodium-α-carboxybenzyl penicillin, reference compound]	6.25 µg/mL	100 µg/mL	3.13 µg/mL	25 µg/mL	100 µg/mL	6.25 µg/mL	1.56 µg/mL	12.5 µg/mL	50 µg/mL	–	–	–	–	50 µg/mL
Cc1nnc(SCC2=C(C(=O)O)N3C(=O)[C@@H](NC(=O)Cn4cnnn4)[C@H]3SC2)s1 [CEZ, sodium 7-[1-(1H)-tetrazoylacetamido]-3-[2-(5-methyl-1,3,4-thiadiazoyl)-thiomethyl]-Δ^3, cephem-4-carboxylate, reference compound]	3.13 µg/mL	3.13 µg/mL	12.5 µg/mL	> 100 µg/mL	> 100 µg/mL	> 100 µg/mL	1.56 µg/mL	0.78 µg/mL	25 µg/mL	–	–	–	–	3.13 µg/mL
